Experimental data published in PubChem BioAssay (NCI).
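All cell lines were grown in 96-well plates and treated with compound for 48 hours. At the GI50, growth is halved. TGI denotes the concentration required for complete inhibition of growth.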

Assays:
Test in all cases: inhibition of tumour cell growth, NCI panel, 48 h
786-0 renal = test system: 786-0 renal
A498 renal = test system: A498 renal
A549 NSCLC = test system: A549 NSCLC
ACHN renal = test system: ACHN renal
CAKI-1 renal = test system: CAKI-1 renal
CCRF-CEM leukemia = test system: CCRF-CEM leukemia
COLO 205 colon = test system: COLO 205 colon
DU-145 prostate = test system: DU-145 prostate
HCT-15 colon = test system: HCT-15 colon
HL-60(TB) leukemia = test system: HL-60(TB) leukemia
HOP-62 NSCLC = test system: HOP-62 NSCLC
HOP-92 NSCLC = test system: HOP-92 NSCLC
HS 578T breast = test system: HS 578T breast
HT29 colon = test system: HT29 colon
IGROV1 ovarian = test system: IGROV1 ovarian
K-562 leukemia = test system: K-562 leukemia
KM12 colon = test system: KM12 colon
LOX IMVI melanoma = test system: LOX IMVI melanoma
M14 melanoma = test system: M14 melanoma
MALME-3M melanoma = test system: MALME-3M melanoma
MCF7 breast = test system: MCF7 breast
MDA-MB-231 breast = test system: MDA-MB-231 breast
MDA-MB-435 = test system: MDA-MB-435
MOLT-4 leukemia = test system: MOLT-4 leukemia
NCI-H226 lung = test system: NCI-H226 lung
NCI-H460 lung = test system: NCI-H460 lung
OVCAR-3 ovarian = test system: OVCAR-3 ovarian
OVCAR-5 ovarian = test system: OVCAR-5 ovarian
OVCAR-8 ovarian = test system: OVCAR-8 ovarian
PC-3 prostate = test system: PC-3 prostate
RPMI-8226 leukemia = test system: RPMI-8226 leukemia
RXF 393 renal = test system: RXF 393 renal
SF-295 CNS = test system: SF-295 CNS
SF-539 CNS = test system: SF-539 CNS
SK-MEL-2 melanoma = test system: SK-MEL-2 melanoma
SK-MEL-28 melanoma = test system: SK-MEL-28 melanoma
SK-MEL-5 melanoma = test system: SK-MEL-5 melanoma
SK-OV-3 ovarian = test system: SK-OV-3 ovarian
SN12C renal = test system: SN12C renal
SNB-19 CNS = test system: SNB-19 CNS
SNB-75 CNS = test system: SNB-75 CNS
SR leukemia = test system: SR leukemia
T-47D breast = test system: T-47D breast
TK-10 renal = test system: TK-10 renal
U251 CNS = test system: U251 CNS
UACC-62 melanoma = test system: UACC-62 melanoma
UO-31 renal = test system: UO-31 renal

COC(=O)[C@]12CC[C@@H](C(=O)/C=C/c3cccnc3)[C@@H]1[C@H]1CC[C@@H]3[C@@]4(C)C/C(=C/c5cccnc5)C(=O)C(C)(C)[C@@H]4CC[C@@]3(C)[C@]1(C)CC2
GI50 (786-0 renal): 374 nM | TGI (786-0 renal): 1330 nM | GI50 (A498 renal): 224 nM | TGI (A498 renal): 947 nM | GI50 (A549 NSCLC): 401 nM | TGI (A549 NSCLC): 2310 nM | GI50 (ACHN renal): 191 nM | TGI (ACHN renal): 348 nM | GI50 (CAKI-1 renal): 716 nM | TGI (CAKI-1 renal): 2000 nM | GI50 (CCRF-CEM leukemia): 334 nM | TGI (CCRF-CEM leukemia): 1650 nM | GI50 (COLO 205 colon): 357 nM | TGI (COLO 205 colon): 1350 nM | GI50 (DU-145 prostate): 773 nM | TGI (DU-145 prostate): 2030 nM | GI50 (HCT-15 colon): 247 nM | TGI (HCT-15 colon): 666 nM | GI50 (HL-60(TB) leukemia): 292 nM | TGI (HL-60(TB) leukemia): 1510 nM | GI50 (HOP-62 NSCLC): 789 nM | TGI (HOP-62 NSCLC): 2340 nM | GI50 (HOP-92 NSCLC): 434 nM | TGI (HOP-92 NSCLC): 1730 nM | GI50 (HS 578T breast): 395 nM | TGI (HS 578T breast): 1930 nM | GI50 (HT29 colon): 319 nM | TGI (HT29 colon): 1020 nM | GI50 (IGROV1 ovarian): 241 nM | TGI (IGROV1 ovarian): 570 nM | GI50 (K-562 leukemia): 309 nM | TGI (K-562 leukemia): > 100000 nM | GI50 (KM12 colon): 317 nM | TGI (KM12 colon): 1050 nM | GI50 (LOX IMVI melanoma): 210 nM | TGI (LOX IMVI melanoma): 442 nM | GI50 (M14 melanoma): 310 nM | TGI (M14 melanoma): 1010 nM | GI50 (MALME-3M melanoma): 201 nM | TGI (MALME-3M melanoma): 416 nM | GI50 (MCF7 breast): 387 nM | TGI (MCF7 breast): 1830 nM | GI50 (MDA-MB-231 breast): 223 nM | TGI (MDA-MB-231 breast): 508 nM | GI50 (MDA-MB-435): 204 nM | TGI (MDA-MB-435): 420 nM | GI50 (MOLT-4 leukemia): 359 nM | TGI (MOLT-4 leukemia): 1770 nM | GI50 (NCI-H226 lung): 260 nM | TGI (NCI-H226 lung): 597 nM | GI50 (NCI-H460 lung): 510 nM | TGI (NCI-H460 lung): 1570 nM | GI50 (OVCAR-3 ovarian): 231 nM | TGI (OVCAR-3 ovarian): 514 nM | GI50 (OVCAR-5 ovarian): 369 nM | TGI (OVCAR-5 ovarian): 1340 nM | GI50 (OVCAR-8 ovarian): 388 nM | TGI (OVCAR-8 ovarian): 1870 nM | GI50 (PC-3 prostate): 412 nM | TGI (PC-3 prostate): 2090 nM | GI50 (RPMI-8226 leukemia): 258 nM | TGI (RPMI-8226 leukemia): 838 nM | GI50 (RXF 393 renal): 219 nM | TGI (RXF 393 renal): 509 nM | GI50 (SF-295 CNS): 382 nM | TGI (SF-295 CNS): 1440 nM | GI50 (SF-539 CNS): 207 nM | TGI (SF-539 CNS): 473 nM | GI50 (SK-MEL-2 melanoma): 296 nM | TGI (SK-MEL-2 melanoma): 1020 nM | GI50 (SK-MEL-28 melanoma): 245 nM | TGI (SK-MEL-28 melanoma): 565 nM | GI50 (SK-MEL-5 melanoma): 335 nM | TGI (SK-MEL-5 melanoma): 983 nM | GI50 (SK-OV-3 ovarian): 2730 nM | TGI (SK-OV-3 ovarian): 6890 nM | GI50 (SN12C renal): 429 nM | TGI (SN12C renal): 1670 nM | GI50 (SNB-19 CNS): 665 nM | TGI (SNB-19 CNS): 1970 nM | GI50 (SNB-75 CNS): 1350 nM | TGI (SNB-75 CNS): 2630 nM | GI50 (SR leukemia): 281 nM | TGI (SR leukemia): 1270 nM | GI50 (T-47D breast): 405 nM | TGI (T-47D breast): 2420 nM | GI50 (TK-10 renal): 701 nM | TGI (TK-10 renal): 2070 nM | GI50 (U251 CNS): 360 nM | TGI (U251 CNS): 1340 nM | GI50 (UACC-62 melanoma): 327 nM | TGI (UACC-62 melanoma): 1050 nM | GI50 (UO-31 renal): 167 nM | TGI (UO-31 renal): 331 nM
